Measured values: ChEMBL document CHEMBL1155994, “NO-NSAIDs: Gastric-sparing nitric oxide-releasable prodrugs of non-steroidal anti-inflammatory drugs” (Bioorg Med Chem Lett, 2009)
One block for each molecule: values may come before it. Calls of active or inactive are those of the source. No cut-off for these calls is given here.

Columns and labels:
Rattus norvegicus [1] = experiment: Gastrointestinal toxicity in rat assessed as ulcerogenic index at dose equimolar to 100 mg/kg of aspirin, po after 3 hrs; type: organism-based; design: dose 100 mg/kg, route oral; conditions: in vivo
Rattus norvegicus [2] = experiment: Effect on nitric oxide release in rat assessed as plasma nitrate/nitrite concentration at dose equimolar to 10 mg/kg of diclofenac, po by Griess method; type: functional, organism-based; design: dose 10 mg/kg
Rattus norvegicus [3] = experiment: Antiinflammatory activity against carrageenan-induced paw edema in rat at dose equimolar to 150 mg/kg aspirin, po administered 1 hr before carrageenan challenge measured after 6 hrs by plethysmometer; type: functional
Rattus norvegicus [4] = experiment: Antiinflammatory activity against carrageenan-induced paw edema in rat at dose equimolar to 150 mg/kg aspirin, po administered 1 hr before carrageenan challenge measured after 4 hrs by plethysmometer; type: functional; conditions: at 150 mg/kg
Rattus norvegicus [5] = experiment: Gastrointestinal toxicity in rat assessed as ulcerogenic index at dose equimolar to 100 mg/kg of diclofenac, po after 5 hrs; type: organism-based; design: dose 100 mg/kg, route oral; conditions: in vivo
Rattus norvegicus [6] = experiment: AUC in rat at po dose of equimolar to aspirin; type: ADME, organism-based, Plasma; conditions: in vivo
Rattus norvegicus [7] = experiment: Antiinflammatory activity against carrageenan-induced paw edema in rat at dose equimolar to 10 mg/kg aspirin, po administered 1 hr before carrageenan challenge measured after 6 hrs by plethysmometer; type: functional
Rattus norvegicus [8] = experiment: Antiinflammatory activity against carrageenan-induced paw edema in rat at 10 mg/kg, po administered 1 hr before carrageenan challenge measured after 6 hrs by plethysmometer; type: functional
[9] = AUC in rat at 10 mg/kg, po; type: ADME, organism-based; design: dose 10 mg/kg, route oral; conditions: plasma
Rattus norvegicus [10] = experiment: Gastrointestinal toxicity in rat assessed as ulcerogenic index at 100 mg/kg, po after 3 hrs; type: organism-based; design: dose 100 mg/kg, route oral; conditions: in vivo
Rattus norvegicus [11] = experiment: Antiinflammatory activity against carrageenan-induced paw edema in rat at 10 mg/kg, po administered 1 hr before carrageenan challenge measured after 4 hrs by plethysmometer; type: functional
Rattus norvegicus [12] = experiment: Antiinflammatory activity against carrageenan-induced paw edema in rat at 150 mg/kg, po administered 1 hr before carrageenan challenge measured after 6 hrs by plethysmometer; type: functional
Rattus norvegicus [13] = experiment: Gastrointestinal toxicity in rat assessed as ulcerogenic index at 100 mg/kg, po after 5 hrs; type: organism-based; design: dose 100 mg/kg, route oral; conditions: in vivo
[14] = AUC in rat at 150 mg/kg, po; type: ADME, organism-based; design: dose 150 mg/kg, route oral; conditions: plasma
Rattus norvegicus [15] = experiment: Antiinflammatory activity against carrageenan-induced paw edema in rat at 150 mg/kg, po administered 1 hr before carrageenan challenge measured after 4 hrs by plethysmometer; type: functional
Rattus norvegicus [16] = experiment: AUC in rat at 35 mg/kg, po; type: ADME, organism-based, Plasma; design: dose 35 mg/kg, route oral; conditions: in vivo

Structure (SMILES): O=C(Cc1ccccc1Nc1c(Cl)cccc1Cl)OCCSSCCO[N+](=O)[O-]
UI (Rattus norvegicus [1]): 0 mm2 | Activity (Rattus norvegicus [2]): Active

Structure (SMILES): CC(=O)Oc1ccccc1C(=O)OCC(=O)OCCSSCCO[N+](=O)[O-]
Activity (Rattus norvegicus [3]): inactive | inhibition (Rattus norvegicus [4]): inactive

Structure (SMILES): CC(=O)Oc1ccccc1C(=O)OCCSSCCO[N+](=O)[O-]
UI (Rattus norvegicus [5]): 0 mm2 | AUC (Rattus norvegicus [6]): 749 ug/hr.ml

Structure (SMILES): O=C(COC(=O)Cc1ccccc1Nc1c(Cl)cccc1Cl)OCCSSCCO[N+](=O)[O-]
Activity (Rattus norvegicus [7]): inactive

Continued, in another order:

AUC [9]: 65 µg·h/mL
Structure (SMILES): O=C(O)Cc1ccccc1Nc1c(Cl)cccc1Cl [DICLOFENAC]
inhibition in vivo at 10 mg/kg (Rattus norvegicus [8]): 21% | UI (Rattus norvegicus [10]): 108 mm2 | Activity (Rattus norvegicus [11]): 55%

AUC [14]: 4050 µg·h/mL | AUC (Rattus norvegicus [16]): 909 ug/hr.ml
Structure (SMILES): CC(=O)Oc1ccccc1C(=O)O [ASPIRIN]
inhibition in vivo at 150 mg/kg (Rattus norvegicus [12]): 31% | UI (Rattus norvegicus [13]): 99 mm2 | inhibition in vivo at 150 mg/kg (Rattus norvegicus [15]): 30%
